Legend:
BT-474 Tam1 [1] = experiment: drug sensitivity score (DSS) (DSS (dimensionless)); higher = more sensitive; extreme values may be limits of the assay; settings: 4-OH-tamoxifen in medium 1 µM; 72 h
In short: (§1)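 CellTiter-Glo viability was the readout, taken on a PHERAstar and normalised to vehicle-only and positive controls. It was measured after breast cancer cell lines and their resistant derivatives spent 72 h at 37 °C in 384-well plates containing library drugs at five concentrations spanning a 10 000-fold range, with 1 μM of the selecting drug in the medium of resistant lines. From logistic dose–response fits in the Breeze pipeline came drug sensitivity score, relative IC50 (curve midpoint) and top-dose inhibition.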

BT-474 Tam2 [2] = experiment: as above; settings: 4-OH-tamoxifen in medium 1 µM; 72 h
In short: as §1

BT-474 [3] = experiment: as above; settings: 72 h
In short: as §1

MCF-7 Tam1 [4] = experiment: as above; settings: 4-OH-tamoxifen in medium 1 µM; 72 h
In short: as §1

MCF-7 [5] = experiment: as above; settings: 72 h
In short: as §1

T-47D Tam1 [6] = experiment: as above; settings: 4-OH-tamoxifen in medium 1 µM; 72 h
In short: as §1

T-47D Tam2 [7] = experiment: as above; settings: 4-OH-tamoxifen in medium 1 µM; 72 h
In short: as §1

T-47D [8] = experiment: as above; settings: 72 h
In short: as §1

ZR-75-1 Tam1 [9] = experiment: as above; settings: 4-OH-tamoxifen in medium 1 µM; 72 h
In short: as §1

ZR-75-1 Tam2 [10] = experiment: as above; settings: 4-OH-tamoxifen in medium 1 µM; 72 h
In short: as §1

ZR-75-1 [11] = experiment: as above; settings: 72 h
In short: as §1

BT-474 Tam1 [12] = experiment: relative IC50 (midpoint of fitted logistic curve, plateau may be below 50% inhibition; CellTiter-Glo viability); higher = less potent; settings: 4-OH-tamoxifen in medium 1 µM; 72 h
In short: as §1

BT-474 Tam2 [13] = experiment: as above; settings: 4-OH-tamoxifen in medium 1 µM; 72 h
In short: as §1

BT-474 [14] = experiment: as above; settings: 72 h
In short: as §1

MCF-7 Tam1 [15] = experiment: as above; settings: 4-OH-tamoxifen in medium 1 µM; 72 h
In short: as §1

MCF-7 [16] = experiment: as above; settings: 72 h
In short: as §1

T-47D Tam1 [17] = experiment: as above; settings: 4-OH-tamoxifen in medium 1 µM; 72 h
In short: as §1

T-47D Tam2 [18] = experiment: as above; settings: 4-OH-tamoxifen in medium 1 µM; 72 h
In short: as §1

T-47D [19] = experiment: as above; settings: 72 h
In short: as §1

ZR-75-1 Tam1 [20] = experiment: as above; settings: 4-OH-tamoxifen in medium 1 µM; 72 h
In short: as §1

ZR-75-1 Tam2 [21] = experiment: as above; settings: 4-OH-tamoxifen in medium 1 µM; 72 h
In short: as §1

ZR-75-1 [22] = experiment: as above; settings: 72 h
In short: as §1

Row | SMILES | drug sensitivity score (BT-474 Tam1 [1]) | drug sensitivity score (BT-474 Tam2 [2]) | drug sensitivity score (BT-474 [3]; 4-OH-tamoxifen in medium 0 µM) | drug sensitivity score (BT-474 [3]; 4-OH-tamoxifen in medium 1 µM) | drug sensitivity score (MCF-7 Tam1 [4]) | drug sensitivity score (MCF-7 [5]; 4-OH-tamoxifen in medium 0 µM) | drug sensitivity score (MCF-7 [5]; 4-OH-tamoxifen in medium 1 µM) | drug sensitivity score (T-47D Tam1 [6]) | drug sensitivity score (T-47D Tam2 [7]) | drug sensitivity score (T-47D [8]; 4-OH-tamoxifen in medium 0 µM) | drug sensitivity score (T-47D [8]; 4-OH-tamoxifen in medium 1 µM) | drug sensitivity score (ZR-75-1 Tam1 [9]) | drug sensitivity score (ZR-75-1 Tam2 [10]) | drug sensitivity score (ZR-75-1 [11]; 4-OH-tamoxifen in medium 0 µM) | drug sensitivity score (ZR-75-1 [11]; 4-OH-tamoxifen in medium 1 µM) | relative IC50 (BT-474 Tam1 [12]) [µM] | relative IC50 (BT-474 Tam2 [13]) [µM] | relative IC50 (BT-474 [14]; 4-OH-tamoxifen in medium 0 µM) [µM] | relative IC50 (BT-474 [14]; 4-OH-tamoxifen in medium 1 µM) [µM] | relative IC50 (MCF-7 Tam1 [15]) [µM] | relative IC50 (MCF-7 [16]; 4-OH-tamoxifen in medium 0 µM) [µM] | relative IC50 (T-47D Tam1 [17]) [µM] | relative IC50 (T-47D Tam2 [18]) [µM] | relative IC50 (T-47D [19]; 4-OH-tamoxifen in medium 1 µM) [µM] | relative IC50 (ZR-75-1 Tam1 [20]) [µM] | relative IC50 (ZR-75-1 Tam2 [21]) [µM] | relative IC50 (ZR-75-1 [22]; 4-OH-tamoxifen in medium 0 µM) [µM] | relative IC50 (ZR-75-1 [22]; 4-OH-tamoxifen in medium 1 µM) [µM] | relative IC50 (MCF-7 [16]; 4-OH-tamoxifen in medium 1 µM) [µM] | relative IC50 (T-47D [19]; 4-OH-tamoxifen in medium 0 µM) [µM]
1 | CCOc1cc2ncc(C#N)c(Nc3ccc(OCc4ccccn4)c(Cl)c3)c2cc1NC(=O)/C=C/CN(C)C [Neratinib] | 28.3 | 28.7 | 20.8 | 25.6 | 0 | 0 | 2.07 | 3.53 | 2.11 | 0.25 | 0 | 0 | 0 | 0 | 0 | 0.00418 | 0.00376 | 0.00918 | 0.00618 | > 1 | > 1 | 0.0976 | 0.218 | > 1 | > 1 | > 1 | > 1 | > 1 | – | –
2 | NCCCNCCSP(=O)(O)O [Amifostine] | 0 | 0 | 0 | 0 | 0 | 0 | 0 | 0 | 0 | 0 | 0 | 0 | 0 | 0 | 0 | > 10 | > 10 | > 10 | > 10 | > 10 | > 10 | > 10 | > 10 | > 10 | > 10 | > 10 | > 10 | > 10 | > 10 | > 10
3 | Nc1nc(=O)c2c([nH]1)NCC(CNc1ccc(C(=O)N[C@@H](CCC(=O)O)C(=O)O)cc1)N2C=O (mixture of isomers) [Folinic acid] | 0 | 0 | 0 | 0 | 0 | 0 | 0 | 0 | 0 | 0 | 0 | 0 | 0 | 0.942 | 0 | > 990 | > 990 | > 990 | > 990 | > 990 | > 990 | > 990 | > 990 | > 990 | > 990 | > 990 | > 990 | > 990 | > 990 | > 990
4 | C[C@]12C=CC(=O)C=C1CC[C@@H]1[C@@H]2C(=O)C[C@@]2(C)[C@H]1CC[C@]2(O)C(=O)CO [Prednisone] | 0 | 0 | 0 | 0 | 0 | 0 | 0 | 0 | 0 | 0 | 0 | 0 | 0 | 0 | 0 | > 10 | > 10 | > 10 | > 10 | > 10 | > 10 | > 10 | > 10 | > 10 | > 10 | > 10 | > 10 | > 10 | > 10 | > 10
5 | COc1cc2c(N3CCN(C(=O)Nc4ccc(OC(C)C)cc4)CC3)ncnc2cc1OCCCN1CCCCC1 [Tandutinib] | 0 | 0 | 0 | 0 | 0 | 0 | 0 | 0 | 0 | 0 | 0 | 0 | 0 | 0 | 0 | > 1 | > 1 | > 1 | > 1 | > 1 | > 1 | > 1 | > 1 | > 1 | > 1 | > 1 | > 1 | > 1 | > 1 | > 1
6 | O=NN(CCCl)C(=O)NCCCl [Carmustine] | 0 | 0 | 0 | 0 | 0 | 0 | 0 | 0 | 0 | 0 | 0 | 0 | 0 | 0 | 0 | > 10 | > 10 | > 10 | > 10 | > 10 | > 10 | > 10 | > 10 | > 10 | > 10 | > 10 | > 10 | > 10 | > 10 | > 10
7 | CS(=O)(=O)N1CCN(Cc2cc3nc(-c4cccc5[nH]ncc45)nc(N4CCOCC4)c3s2)CC1 [Pictilisib (GDC-0941)] | 17.4 | 17.2 | 10.2 | 16.4 | 8.69 | 15.4 | 12.8 | 14.7 | 9.95 | 9.41 | 9.59 | 11.3 | 12.1 | 12.7 | 9.23 | 0.202 | 0.182 | 0.359 | 0.283 | 0.582 | 0.201 | 0.148 | 0.472 | 0.884 | 0.514 | 0.415 | 0.208 | 0.453 | 0.419 | 0.713

Source: the supplement of paper PMC4932681
